Experimental data published in patent USRE38169E1, “Hyperstabilizing antisense nucleic acid binding agents” (priority 1993, dated 2003).

How the values were obtained:
[1] = system: RNA sense / DNA-PO antisense duplex; test: Binding of drug to duplex (NACS column); design: species or system equine infectious anemia retrovirus; details: saturation; initial CC-1065/nucleotide 0.1; 37° C., 4 hr
Procedure: (§1) Oligodeoxyribonucleotides were obtained by chemical synthesis through standard techniques on an automated synthesizer located in the Department of Veterinary Microbiology and Parasitology at Louisiana State University. Antisense MP and PS oligonucleotides were obtained from commercial sources, as was synthetic sense RNA. Poly(rA) was obtained from Sigma Chemical Co. CC-1065 was obtained from the Upjohn Company. Oligonucleotides (0.075 μmol-P each) were mixed in 0.36 ml 0.01 M Na cacodylate buffer, pH 7.2, with CC-1065 in dimethyl formamide (0.04 ml), or with dimethylformamide only. (Note that “μmol-P” denotes μmoles of phosphate; i.e., μmoles of nucleotide bases, rather than of oligonucleotides per se.) Incubations of complementary strands, with or without drug, were carried out at 37° C. for 4 hr. In the initial experiments, unbound drug was separated from nucleotide duplexes by ethanol precipitation. Equivalent results were obtained by trapping the oligonucleotides and CC-1065 on NACS-52 columns, and washing first with low-salt buffer and then with buffer containing 1M NaCl. […] Samples prepared in this manner could be directly used for determination of binding of the drug to the nucleic acid (as measured by the A365/A260 ratio), with the extinction of CC-1065 absorbance at 365 nm taken as 48,000, and the extinction of the nucleic acid absorption at 260 nm based on its composition. […]

[2] = system: RNA sense / DNA-PS antisense duplex; test: Binding of drug to duplex (NACS column); design: species or system equine infectious anemia retrovirus; details: saturation; initial CC-1065/nucleotide 0.1; 37° C., 4 hr
Procedure: as §1

[3] = system: Salmon Sperm DNA; test: Binding of drug to duplex (NACS column); details: saturation; initial CC-1065/nucleotide 0.1; 37° C., 4 hr
Procedure: as §1

[4] = system: DNA sense (SEQ ID NO. 1) / DNA-MP antisense duplex (PO-MP); test: Duplex strand separation temperature (Tm); assay type: binding, equine infectious anemia retrovirus
Procedure: (§2) Samples for determining Tm were also obtained by the above procedures. […] Thus the effects of this agent on Tm were carried out with Distamycin in solution with the duplexes tested.
(§3) Tm's were determined on a Gilford 2400 Spectrophotometer set at 260 nm, with a 4-chamber Peltier-based temperature controller. Temperature was ramped linearly at 0.5° C./min. Absorbance data were acquired with a 12-bit A/D converter, and data were processed with Lotus 123W and SigmaPlot software. Tm values were determined from the plots as the midpoint of the thermal transitions.

[5] = system: DNA sense (SEQ ID NO. 1) / DNA-PO antisense duplex (PO-PO); test: Duplex strand separation temperature (Tm); assay type: binding, equine infectious anemia retrovirus
Procedure: as §2, §3

[6] = system: DNA sense (SEQ ID NO. 1) / DNA-PS antisense duplex; test: Duplex strand separation temperature (Tm); assay type: binding, equine infectious anemia retrovirus
Procedure: as §2, §3

[7] = system: Oligo dA - Oligo dT; test: Duplex strand separation temperature (Tm); assay type: binding
Procedure: as §2, §3

[8] = system: Poly rA - Oligo dT (PO); test: Duplex strand separation temperature (Tm); assay type: binding
Procedure: as §2, §3

[9] = system: mRNA of a fragment of the env gene of EIAV; test: In vitro translation (wheat-germ extract, 35S-methionine); assay type: biochemical; details: 1.95 μg mRNA; antisense about 3 times mRNA sense; CC-1065 3 times antisense; scintillation spectrometry
Procedure: The in vitro translation studies were performed as follows. A fragment of DNA from the env gene of EIAV was transcribed with an SP-6 polymerase kit, and the resulting mRNA (approximately 600 bases long) was capped and isolated. The transcribed fragment included the target sequence 5′-[…]-3′ (SEQ ID NO. 3) (the CC-1065 binding site is underlined). The corresponding antisense sequence (using normal phosphodiester chemistry) was 5′-[…]-3′ (SEQ ID NO. 4). Translation was performed with a wheat-germ extract (Promega) in the presence of ^35S-methionine. The mRNA's were divided into approximately 2 μg aliquots, and treated according to the protocols listed for Table 3 below. Treated mRNA was separated from small molecules (such as DMSO and CC-1065) with a Sephadex 50-based NICK column. Translation was carried out in 25 μl of buffer containing the wheat germ translation system; the isolated mRNA; amino acids, including the labelled methionine; and RNAsin, an inhibitor of RNase. The proteins produced were divided into two aliquots. One aliquot was fractionated by SDS-PAGE, followed by autoradiography; and the other was analyzed by scintillation spectrometry. The concentrations of antisense oligomers and CC-1065 in the free-solution chemistries were relatively high compared to the sense target, to optimize duplex formation and drug binding. […] The following pairs were different at the P<0.05 level by Student's t-test (unpaired analysis): 1,5; 2,5; 3,4; 3,5; 4,5.

[10] = system: calf thymus DNA; details: reported, cited from earlier work
[11] = system: poly(dA)-poly(dT); details: reported, cited from earlier work
[12] = CC-1065 initial D/N = 0.1, minimum Tm estimate
[13] = CC-1065 initial D/N = 0.025, regions lacking CC-1065
[14] = CC-1065 initial D/N = 0.025, regions with CC-1065
[15] = under the conditions of the experiment

COc1c(O)c2c(c3cc(C(=O)N4CCc5c4c(O)c(OC)c4[nH]c(C(=O)N6CC7CC78C6=CC(=O)c6[nH]cc(C)c68)cc54)[nH]c13)CCN2C(N)=O (stereo not shown) [CC-1065]
Approx. No. CC-1065 Bound/20 Base Pairs [1]: ~1 | Approx. No. CC-1065 Bound/20 Base Pairs [2]: ~1 | Approx. No. CC-1065 Bound/20 Base Pairs [3]: ~2 | Tm ([4]; CC-1065 initial D/N = 0.025): 73.0 ± 2.0^4 °C | Tm ([4]; CC-1065 initial D/N = 0.1): 74.0 ± 1.0^4 °C | Duplex Strand Separation Temperature ([4]; DNA / DNA-MP, drug-bound duplex (Table 6)): 74.0 ± 1.04 | Tm Elevation ([4]; PO-MP, highest level of binding obtained): 21.5 °C | Tm ([5]; CC-1065 initial D/N = 0.025, 1M NaCl eluate): 81.7 ± 0.6^4 °C | Tm ([5]; CC-1065 initial D/N = 0.1, minimum Tm estimate (melting not completed)): ≥ 85.3 ± 2.3^4,5 °C | Duplex Strand Separation Temperature ([5]; DNA / DNA-PO, drug-bound duplex (Table 6)): ≥ 85.3 ± 2.3^4 | Tm Elevation ([5]; PO-PO, highest level of binding obtained): 17.3 °C | Tm ([6]; CC-1065 initial D/N = 0.025): 81.3 ± 2.3^4 °C | Tm [6, 12]: ≥ 84.7 ± 1.5^4,5 °C | Duplex Strand Separation Temperature ([6]; DNA / DNA-PS, drug-bound duplex (Table 6)): ≥ 84.7 ± 1.5^4 | Tm Elevation ([6]; PS-PS, highest level of binding obtained): 20.5 °C | Tm, lower transition of biphasic curve [7, 13]: 50 °C | Tm, higher transition of biphasic curve [7, 14]: 85 °C | Tm [7, 12]: ≥ 85.5 ± 0.7^4,5 °C | Duplex Strand Separation Temperature ([7]; Oligo dA / Oligo dT, drug-bound duplex (Table 6)): ≥ 85.5 ± 0.7^4 | Tm Elevation ([7]; dA-dT, highest level of binding obtained): 28.5 °C | Tm, lower transition of biphasic curve [8, 13]: 51 °C | Tm, higher transition of biphasic curve [8, 14]: 76 °C | Tm [8, 12]: ≥ 81.3 ± 0.6^4,5 °C | Duplex Strand Separation Temperature ([8]; Poly rA / Oligo dT (PO), drug-bound duplex (Table 6)): ≥ 81.3 ± 0.6^4 | Stabilization of duplexes ([8]; poly(rA)-oligo(dT)): strong stabilization | Tm Elevation ([8]; rA-dT, highest level of binding obtained): 28.3 °C | DPM S-35 ± standard error [9]: 133.040 ± 13.227 DPM | Tm ([10]; CC-1065 bound): ~100 °C | Increase in Tm [10, 15]: over 30 °C | Tm ([11]; CC-1065 bound): ~100 °C | Increase in Tm [11, 15]: over 30 °C
